Measured values taken from US9808434B2, “Compound for treating cancer and diabetes” (CITY OF HOPE, priority 2011, dated 2017).

Tests used:
p38 MAPK, ERK1/2, JNK = assay: MAPK/ERK signaling in melanoma cells, Western blotting; format: cell-based; conditions: 0-10 μM; 5 μM 0-24 h
Description: Cell or tissue proteins were extracted with cell lysis buffer (Cell Signaling Technology) and protein concentration was determined using the DC Protein Assay kit (Bio-Rad, Hercules, Calif., USA). Equal amount of proteins (˜40 μg) were loaded onto 4-15% Criterion TGX gels (Bio-Rad, Hercules, Calif.), resolved by SDS-PAGE electrophoresis, and then transferred onto nitrocellulose membranes for immunoblotting. Membranes were blocked with 5% skimmed milk in Tris-buffered saline containing 0.05% Tween 20 before incubation overnight at 4° C. with desired primary antibodies. Immuno-reactive proteins were visualized by peroxidase-labeled secondary antibodies and ECL system (Western Lightning Chemiluminescence Reagent, Perkin-Elmer, Mass., USA). […] Band intensities were quantified using a densitometer (Quantity One, Bio-Rad, Hercules, Calif.).
To investigate whether COH-SR4 affected the MAPK/ERK signaling pathway in human melanoma, the phosphorylation levels of p38 MAPK (T^180/Y^182), ERK1/2 (T^202/Y^204), and pJNK (T^183/Y^185), in A101D, A2058, SK-Mel-5, SK-MEL-28 and B16-F0 melanoma cells were examined after COH-SR4 treatment at various doses (0-10 μM) (FIG. 76A) or at a dose of 5 μM at various time points (0-24 h) (FIG. 76B). Total proteins were isolated and analyzed by Western blotting.

PBT-017 = assay: Glioma ATP viability assay, PBT-017; format: cell-based; conditions: 72 h
Description: (§1) Cells of each cell line (U251, U87, PBT-017, PBT018, PBT003 and PBT028) were treated with various concentrations (0˜100 μM) of COH-SR4 for 72 hours. Cell viabilities were determined by ATP viability assays. Data were represented as a ratio to vehicle (DMSO) control, and plotted as mean±SEM (n=12) obtained from 2˜3 experiments (FIG. 34A).
as §1, with “(U87, U251,” for “(U251, U87, PBT-017, PBT018,”, “PVT-017)” for “PBT028)”, “2-3” for “2˜3”, “34B).” for “34A).”
Cells of each cell line were treated with various concentrations (0˜100 μM) of COH-SR4 or various concentrations (0˜1000 μM) of TMZ for 72 hours. Cell viabilities were determined by ATP viability assays. Data were represented as a ratio to untreated cells as control, and plotted as mean±SEM (n=12) obtained from 2˜3 experiments (FIGS. 43A-B).

H1618 cells = assay: MTT assay, H1618; format: cell-based; conditions: Homo sapiens, 48 h
Description: Cell density measurements were performed using a hemocytometer to count reproductive cells resistant to staining with trypan blue. Approximately 20,000 cells were plated into each well of 96-well flat-bottomed micro-titer plates. After 12 h or 24 h incubation at 37° C., medium containing either COH-SR4 (ranging 0-200 μM) or elesclomol (ranging 0-20 μM) were added to the cells. After 24 h, 48 h or 96 h incubation, 20 μL of 5 mg/mL MTT were introduced to each well and incubated for 2 h. The plates were centrifuged and medium was decanted. Cells were subsequently dissolved in 100 μl DMSO with gentle shaking for 2 h at room temperature, followed by measurement of OD570 (91).
The effect of COH-SR4 was first examined in a NCI panel of cancer cell lines, the results of which indicated good activity of COH-SR4 towards lung cancer (FIG. 78A). […] Values are presented as mean±SD from two separate determinations with eight replicates each (n=16) (FIG. 78B). […] Standard colony-forming assay was performed and the colonies were counted using Innotech Alpha Imager HP. […] TUNEL assay was performed using Promega fluorescence detection kit and examined using Zeiss LSM 510 META laser-scanning fluorescence microscope with filters 520 and 620 nm. […]

[1] = test system: CDK2, CDK4, cyclin A, cyclin B1, cyclin E1, p27; assay: Cell cycle regulator proteins in H358 and H520, Western-blot; format: cell-based, human; conditions: 24 h
Description: Cell or tissue proteins were extracted with cell lysis buffer (Cell Signaling Technology) and protein concentration was determined using the DC Protein Assay kit (Bio-Rad, Hercules, Calif., USA). Equal amount of proteins (˜40 μg) were loaded onto 4-15% Criterion TGX gels (Bio-Rad, Hercules, Calif.), resolved by SDS-PAGE electrophoresis, and then transferred onto nitrocellulose membranes for immunoblotting. Membranes were blocked with 5% skimmed milk in Tris-buffered saline containing 0.05% Tween 20 before incubation overnight at 4° C. with desired primary antibodies. Immuno-reactive proteins were visualized by peroxidase-labeled secondary antibodies and ECL system (Western Lightning Chemiluminescence Reagent, Perkin-Elmer, Mass., USA). Equal loading of proteins was confirmed by stripping and re-probing the membranes with either β-actin or GAPDH antibodies. Band intensities were quantified using a densitometer (Quantity One, Bio-Rad, Hercules, Calif.).
In the context of the elevation of GSTs in lung cancer, the impact of COH-SR4 on the catalytic activity of GSTs towards 1-chloro 2,4-dinitro benzene (CDNB), a model substrate used for GST activity was analyzed. GST activity towards 1-chloro 2,4-dinitro benzene (CDNB) and its inhibition by COH-SR4 was performed in 28000×g crude supernatant prepared from H1417, H1618, H520 and H358 cells. […]

In the case of `O=C(Nc1cc(Cl)cc(Cl)c1)Nc1cc(Cl)cc(Cl)c1` [COH-SR4, 1,3-bis(3,5-dichlorophenyl) urea], the “phosphorylation of p38 MAPK and ERK1/2” value (p38 MAPK, ERK1/2, JNK) is reported as “dose- and time dependent increase in the levels of phosphorylation of p38 MAPK (T^180/Y^182) and ERK1/2 (T^202/Y^204)”, the IC50 (PBT-017; Table 1) is reported as 2000 nM and the IC50 (PBT-017; Table 2) is reported as 2100 nM. For the same compound, the IC50 (H1618 cells) was 1500 ± 200 nM, the “protein level of p27” value [1] was “up-regulated” and the “protein levels of CDK2, CDK4, cyclin A, cyclin B1 and cyclin E1” value [1] was “decreased the protein levels of CDK2, CDK4, cyclin A, cyclin B1 and cyclin E1”.
